The nature of the data set: solvent given as SMILES.

For the molecule `COc1ccc(N(c2ccc(OC)cc2)c2cc3ccc4cc(B(c5c(C)cc(C)cc5C)c5c(C)cc(C)cc5C)cc5ccc(c2)c3c45)cc1`, the absorption maximum reads like this: (in C1CCOC1) 399 nm; (in CC(C)=O) 395 nm; (in CCCCCC) 398 nm; (in Cc1ccccc1) 402 nm; (in ClC(Cl)Cl) 399 nm; (in ClCCl) 397 nm.

In the case of `COc1ccc(-c2nc(-c3cccc(OC)c3)[nH]c2-c2ccc(OC)cc2)cc1`, the absorption maximum (in CO) was 300 nm.

`COc1ccc(N(c2ccc(OC)cc2)c2ccc(-c3ccc(C=C(C#N)C#N)cc3)cc2)cc1`: the absorption maximum (in ClC(Cl)Cl) was 483 nm.

Molecule `c1ccc(C2CSC(c3c4ccc(=[N+]5CCCCC5)cc-4oc4cc(N5CCCCC5)ccc34)SC2)cc1` (stereo not drawn) registered an absorption maximum (in CO) of 584.58 nm.

For the molecule `COc1ccc(O)cc1C=O`, the absorption maximum runs as follows: (in CO) 355 nm; (in ClC(Cl)Cl) 349 nm.

With `COC(=O)c1c(-c2cc3ccccc3oc2=O)nn(-c2cccc(F)c2)c1C(=O)OC`, the absorption maximum (in ClCCl) worked out at 323 nm.

Regarding `COc1cc(OC)c2cc(-c3ccc(-c4cc5c(OC)cc(OC)cc5oc4=O)cc3)c(=O)oc2c1`, the absorption maximum (in ClC(Cl)Cl) is 372 nm.

Take `C[n+]1ccnc(/C=C/c2ccc(N(c3ccccc3)c3ccc(/C=C/c4c[n+](C)ccn4)cc3)cc2)c1`: the absorption maximum was determined as 440 nm (in CS(C)=O), 485 nm (in O) and 500 nm (in OCC(O)CO).

In turn, `CC(C)(C)c1ccc(-c2ccc3c(-c4ccc(C(C)(C)C)c5ccccc45)cc4c5cc(-c6ccc(C(C)(C)C)c7ccccc67)ccc5c(-c5ccc(C(C)(C)C)c6ccccc56)cc4c3c2)c2ccccc12` had an absorption maximum (in ClCCl) of 300 nm.

On to `Nc1cc2nc3cc(Br)c(Br)cc3nc2cc1N`, for which the absorption maximum (in CCO) is 442 nm.

Molecule `COC(=O)/C=C/c1sc(-c2ccc(N(C)C)s2)c(-c2ccsc2)c1N` showed an absorption maximum (in CC#N) of 472 nm.

Under “in C1CCOC1”, `N#Cc1cc(-n2c3ccccc3c3cc(Br)ccc32)c(-n2c3ccccc3c3cc(Br)ccc32)cc1C#N` registered an absorption maximum of 366 nm.

Turning to `Cc1ccc(C2=C(/C=C/C(=O)OC3CC[C@@]4(C)C(=CC[C@H]5[C@@H]6CC[C@H]([C@H](C)CCCC(C)C)[C@@]6(C)CC[C@@H]54)C3)C(c3ccc(C)cc3)=[N+]3C2=Nc2c(-c4ccc(C)cc4)c(Br)c(-c4ccc(C)cc4)n2[B-]3(F)F)cc1` (stereo partly drawn), under “in ClC(Cl)Cl”, the absorption maximum worked out at 662 nm.

For the molecule `O=C(O)CCCCCn1c2ccc(Br)cc2c(=O)c2cc(Br)ccc21`, the absorption maximum (in O) is 425 nm.

Consider `CN(C)/C=N\c1ccc2c3c(cccc13)C(=O)c1ccccc1-2`, for which the absorption maximum stood at 459 nm (in C1CCOC1); 437 nm (in CCCCCC); 471 nm (in CCO); 459 nm (in CCOC(C)=O); 479 nm (in CN(C)C=O); 470 nm (in CO). For the same molecule, the absorption maximum is, setting by setting: (in Cc1ccccc1) 454 nm; (in ClC(Cl)(Cl)Cl) 448 nm; (in ClC(Cl)Cl) 464 nm; (in ClCCl) 467 nm; (in c1ccccc1) 456 nm.

`C[Si]1(c2ccccc2)C(c2ccc3c(c2)c2ccccc2n3-c2ccccc2)=C(c2ccccc2)C(c2ccccc2)=C1c1ccc2c(c1)c1ccccc1n2-c1ccccc1` gave an absorption maximum (in C1CCOC1) of 404 nm.

In the case of `N#C/C(=C\c1ccncc1)c1nc(-c2ccc(Cl)cc2)cs1`, under “in CC#N”, the absorption maximum is 357 nm.

Under “in ClC(Cl)Cl”, `N#Cc1nc(N(Cc2ccccc2Cl)Cc2ccccc2Cl)c(C#N)nc1N(Cc1ccccc1Cl)Cc1ccccc1Cl` gave an absorption maximum of 485 nm.

Regarding `O=C1CCCC2=C1C(c1cccc(Cl)c1)c1c(c3ccccc3oc1=O)N2` (stereo not drawn), the absorption maximum (in CS(C)=O) amounted to 373 nm.

`CCCC1=C(CCC)c2cccc3c2c(cc2nc4ccccc4nc23)O1` displayed an absorption maximum (in ClCCl) of 499 nm.

As for `CC(C)(C)c1ccc(-c2nc3c4ccccc4c4ccccc4c3n2-c2ccc(C(C)(C)C)cc2)cc1`, the absorption maximum runs as follows: (in C1CCOC1) 314 nm; (in C1COCCO1) 315 nm; (in CC#N) 310 nm; (in CCCCCC) 315 nm; (in CCCCOCCCC) 315 nm; (in CCN(CC)CC) 316 nm. In addition, the absorption maximum runs as follows: (in CCOC(C)=O) 313 nm; (in CCOCC) 313 nm; (in CN(C)C=O) 313 nm; (in Cc1ccccc1) 316 nm; (in ClC=C(Cl)Cl) 316 nm; (in ClCCl) 313 nm.

On to `COc1c2ccccc2c(OC)c2c(C#CC(C)(C)C)c3cc4ccccc4cc3c(C#CC(C)(C)C)c12`, for which the absorption maximum (in ClCCl) is 672 nm.

For the molecule `COc1ccc(/C=C/c2nc(-c3ccc([N+](=O)[O-])cc3)[nH]c2/C=C/c2ccc(OC)cc2)cc1`, the absorption maximum (in ClCCl) is 455 nm.

Molecule `CCCCCCCCCCCCOc1cc2c3c(ccc4c5c(OCCCCCCCCCCCC)cc6c7c(ccc(c1c34)c75)C(=O)N(C1CCCCC1)C6=O)C(=O)N(C1CCCCC1)C2=O` had an absorption maximum (in ClC(Cl)Cl) of 570 nm.

`COc1ccccc1C1=[N+]2C(=C(c3ccccc3)c3c4c(c(-c5ccccc5OC)n3[B-]2(F)F)C2C=CC4CC2)C2=C1C1C=CC2CC1` (stereo not drawn) yielded an absorption maximum (in ClCCl) of 556 nm.

Take `Cc1cc(C)c(-c2c3ccccc3c3ccc4cc5c(-c6c(C)cc(C)cc6C)c6ccccc6c6ccc7cc2c3c4c7c56)c(C)c1`: the absorption maximum (in ClCCl) is 607 nm.

As to `Fc1c(F)c(-n2c3ccccc3c3ccccc32)c(F)c(F)c1/C=C/C(=C(c1ccccc1)c1ccccc1)c1ccccc1`, the absorption maximum (in Cc1ccccc1) came out at 360 nm.

Take `CCOC(=O)c1c2c3c(ccc(F)c3c3cc4c(cc13)[Si](C)(C)O[Si]4(C)C)N(C)C2=O`: under “in CC#N”, the absorption maximum stood at 380 nm.

Take `CCn1c2sccc2c2c3nsnc3c3c4ccsc4n(CC)c3c21`: the absorption maximum by setting is: (in C1CCOC1) 424 nm; (in CCOC(C)=O) 422 nm; (in CN(C)C=O) 430 nm; (in Cc1ccccc1) 423 nm; (in ClCCl) 425 nm.

For `CCCN1/C(=C/C=C(/C=C/C2=[N+](CCC)c3ccccc3C2(C)C)c2cc[n+](C)cc2)C(C)(C)c2ccccc21`, the absorption maximum by setting is: (in CO) 627 nm; (in CS(C)=O) 637 nm; (in O) 626 nm.

As to `C1=Cc2nc1c(-c1cccs1)c1ccc([nH]1)c(-c1cccs1)c1nc(c(-c3cccs3)c3ccc([nH]3)c2-c2cccs2)C=C1`, the absorption maximum runs as follows: (in CN(C)C=O) 661 nm; (in ClCCl) 426 nm.

Under “in CCO”, `COc1cc2c(cc1F)c(=O)c1cc(F)c(OC)cc1n2Cc1ccccc1` yielded an absorption maximum of 381 nm.

In the case of `O=C1c2ccccc2-c2c(-c3ccccc3)c(-c3ccccc3)c(-c3ccccc3)c3cccc1c23`, the absorption maximum runs as follows: (in CC#N) 401 nm; (in CO) 407 nm.

Under “in Cc1ccccc1”, `N#CC(C#N)=Cc1ccc2nc(C#Cc3ccc(N(c4ccc(C#Cc5nc6ccc(C=C(C#N)C#N)cc6s5)cc4)c4ccc(C#Cc5nc6ccc(C=C(C#N)C#N)cc6s5)cc4)cc3)sc2c1` showed an absorption maximum of 440 nm.

In the case of `COc1ccc(/C=C/c2ncc(-c3ccccc3)o2)cc1OC`, the absorption maximum (in ClCCl) is on record as 355 nm.

Consider `Cc1c(C(=O)c2ccc3c4cccc5cccc(c6cccc2c63)c54)c2ccc3cccc4c5cccc6ccc1c(c65)c2c34`, for which the absorption maximum (in ClCCl) is 468 nm.

For the origin of these results see the Deep4Chem optical property database.
